According to patent US5945436A, “Pyridylmethyl nitriles, amides and thioamides useful as fungicides” (Uniroyal Chemical Company, Inc., priority 1997, dated 1999):

Columns and labels:
[1] = tested on: Erysiphe cichoracearum; test: Powdery mildew of cucumber, systemic root uptake (CMS); type: in vivo; conditions: 45 ml of 250 mg/l, 8 days after inoculation
How it was run: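 Pot soil of barley (BMS) and cucumber (CMS) plants was drenched with 45 ml of a 250 mg/l acetone/Tween 20 aqueous emulsion, with untreated plants as controls. Disease was scored on a rating scale that included intermediate grades.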

[2] = tested on: Pyricularia oryzae; test: whole plant or invertebrate; type: in vivo; conditions: for Percent Reduction of Disease, PYR ORY: barley, foliar, 1,000 mg/l; for pest or weed control at 1000 µg/mL: Pyricularia oryzae, in Hordeum vulgare, foliar, 216 h, read-out: Percent Reduction of Disease, PYR ORY, barley, foliar, 1,000 mg/l
[3] = tested on: Uromyces phaseoli; test: Bean rust fungus eradicant test (URO PHA); type: in vivo; conditions: pinto bean, eradicant spray 2 days after inoculation, 1,000 mg/l; for pest or weed control at 1000 µg/mL: Uromyces phaseoli, 216 h, read-out: Percent Reduction of Disease, URO PHA
How it was run: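 Seven-day-old pinto bean plants (Phaseolus vulgaris, primary leaf) were inoculated with 20,000 spores/ml, held 24 h at 99% humidity and 21° C., then sprayed two days post-inoculation with acetone/TWEEN 20 emulsions at 1,000 mg/l. After nine days in a 21° C. greenhouse, disease was scored as percent reduction versus unsprayed controls.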

[4] = tested on: Septoria nodorum; test: Fungal growth inhibition, treated disc on agar (SEP NOD); type: cell-based; conditions: disc dipped in 500 mg/l, 29° C.; for inhibition at 500 µg/mL: Parastagonospora nodorum, read-out: Percent Growth Inhibition, SEP NOD
Description: Filter paper discs, each 11 mm. in diameter, were dipped in each of the test solutions. The discs were allowed to air dry to drive off the acetone solvent. A number of untreated discs were used as controls.
The treated and untreated discs were then placed on agar plates and one of the following fungus species: Septoria nodorum (SEP NOD), Botrytis cinerea (BOT CIN), Fusarium oxysporum (FUS OXY), Pythium ultimum (PYT ULT), Rhizoctonia solani (RHI SOL), Colletotrichum gossypii (COL GOS), and Scierotinia minor (SCL MIN), was added to the center of each disc in the form of a culture plug with the fungus mat in contact with the paper of the test disc. Cercosporidium personatum (CER PER), was added to discs as a spore suspension (20,000 spores/ml) to the disc (two drops of spore suspension per disc), rather than a mycelial culture plug. The plates were then incubated at 29° C. in an oven.
With the exception of the discs containing Cercosporidium personatum, the discs were evaluated by first measuring the radius from the center of the fungus colony on the treated discs and on the untreated discs. Percent growth inhibition of each of the compounds tested was determined as a function of the difference between the radius of the fungus colony on the treated disc versus the radius of the fungus colony on the untreated disc.

[5] = tested on: Helminthosporium sativum; test: Barley spot blotch, foliar treatment (HEL SAT); type: in vivo; conditions: foliar, 1,000 mg/l; for pest or weed control at 1000 µg/mL: Helminthosporium, foliar, 216 h, read-out: Percent Reduction of Disease, HEL SAT
How it was run: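 Six-day-old "Robust" barley, 10 plants per pot, sprayed at 1,000 mg/l (acetone solution emulsified in water with TWEEN 20) or left unsprayed as controls. All plants then inoculated with H. sativum spores, held 24 h at 99% humidity, then 8 days in greenhouse at 21° C. Percent control computed.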

[6] = tested on: Erysiphe graminis; test: Powdery mildew in barley, foliar application (ERY GRA); type: in vivo; conditions: foliar, 1,000 mg/l, 8 days after inoculation; for pest or weed control at 1000 µg/mL: Blumeria graminis, foliar, 192 h, read-out: Percent Reduction of Disease, ERY GRA
How it was run: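 'Robust' barley plants sprayed with acetone/TWEEN 20 aqueous emulsion at 1,000 mg/l, dried, then kept at 21° C in a greenhouse. Inoculated by distributing Erysiphe graminis spores from infected plants. Percent control computed from disease scores vs unsprayed control pots.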

[7] = tested on: Botrytis cinerea; test: Fungal growth inhibition, treated disc on agar (BOT CIN); type: cell-based; conditions: disc dipped in 500 mg/l, 29° C.; for inhibition at 500 µg/mL: Botrytis cinerea, read-out: Percent Growth Inhibition, BOT CIN
[8] = tested on: Rhizoctonia solani; test: Fungal growth inhibition, treated disc on agar (RHI SOL); type: cell-based; conditions: disc dipped in 500 mg/l, 29° C.; for inhibition at 500 µg/mL: Rhizoctonia solani, read-out: Percent Growth Inhibition, RHI SOL

SMILES | Percent Reduction of Disease, CMS [1] | Percent Reduction of Disease, PYR ORY [2] | Percent Reduction of Disease, URO PHA [3] | Percent Growth Inhibition, SEP NOD [4] | Percent Reduction of Disease, HEL SAT [5] | Percent Reduction of Disease, ERY GRA [6] | Percent Growth Inhibition, BOT CIN [7] | Percent Growth Inhibition, RHI SOL [8] | pest or weed control at 1000 µg/mL [2] | pest or weed control at 1000 µg/mL [3] | inhibition at 500 µg/mL [4] | pest or weed control at 1000 µg/mL [5] | pest or weed control at 1000 µg/mL [6] | inhibition at 500 µg/mL [7] | inhibition at 500 µg/mL [8]
CC(C)CCC(C#N)(CCc1ccc(F)cc1)c1cccnc1 (centres unmarked) [Compound 55] | 0% | 70% | 0% | 10% | 90% | 100% | 40% | 50% | – | – | – | – | – | – | –
C=CCC(C#N)(CCc1ccc(OCCCC)cc1)c1cccnc1 (centres unmarked) [Compound 56] | 0% | – | – | – | – | – | – | – | 90% | 0% | 40% | 100% | 90% | 100% | 45%
CCCCOc1ccc(CCC(C#N)(CCC)c2cccnc2)cc1 (centres unmarked) [Compound 57] | 0% | – | – | – | – | – | – | – | 100% | 0% | 40% | 100% | 90% | 30% | 40%
CCCCOc1ccc(CCC(C#N)(CC(C)C)c2cccnc2)cc1 (centres unmarked) [Compound 58] | 0% | – | – | – | – | – | – | – | 85% | 0% | 70% | 0% | 90% | 10% | 5%
CC=CCC(C#N)(CCc1ccc(F)cc1)c1cccnc1 (centres unmarked) [Compound 59] | 0% | – | – | – | – | – | – | – | 85% | 35% | 100% | 90% | 100% | 100% | 5%
CCCCCC(C#N)(CCc1ccc(F)cc1)c1cccnc1 (centres unmarked) [Compound 60] | 0% | – | – | – | – | – | – | – | 70% | 50% | 100% | 90% | 100% | 100% | 100%
C#CCC(CCc1ccccc1)(C(N)=S)c1cccnc1 (stereo not drawn) [Compound 61, α-(2-phenylethyl)-α-(2-propynyl)-3-pyridinethanethioamide] | 40% | – | – | – | – | – | – | – | 50% | 0% | 20% | 85% | 100% | 100% | 80%
CCCCCC(CCc1ccc(F)cc1)(C(N)=O)c1cccnc1 (centres unmarked) [Compound 62] | 20% | – | – | – | – | – | – | – | 0% | 35% | 0% | 0% | 0% | 0% | 5%
CCCCC(C#N)(CCCc1ccccc1OC)c1cccnc1 (centres unmarked) [Compound 63] | 0% | – | – | – | – | – | – | – | 0% | 0% | 100% | 0% | 0% | 40% | 5%
N#CC(CCCF)(CCc1ccc(F)cc1)c1cccnc1 (centres unmarked) [Compound 64] | 0% | – | – | – | – | – | – | – | 20% | 70% | 100% | 85% | 0% | 100% | 20%
N#CC(CCCF)(CCc1ccccc1F)c1cccnc1 (centres unmarked) [Compound 66] | 40% | – | – | – | – | – | – | – | 0% | 70% | 100% | 100% | 50% | 100% | 45%
C=CCC(C#N)(CCc1ccccc1F)c1cccnc1 (centres unmarked) [Compound 67] | 20% | – | – | – | – | – | – | – | 0% | 50% | 100% | 100% | 100% | 100% | 40%
CCCCC(C#N)(CCc1ccc(OCCF)cc1)c1cccnc1 (centres unmarked) [Compound 68] | 0% | – | – | – | – | – | – | – | 70% | 50% | 100% | 100% | 75% | 100% | 45%
CCCCC(C#N)(CCc1ccc(OCCC)cc1)c1cccnc1 (centres unmarked) [Compound 69] | 20% | 0% | 0% | 100% | 85% | 50% | 70% | 5% | – | – | – | – | – | – | –
C=CCC(C#N)(CCCc1ccccc1OC)c1cccnc1 (centres unmarked) [Compound 70] | 0% | – | – | – | – | – | – | – | 0% | 17% | 100% | 100% | 92% | 100% | 28%
CCCC(C#N)(CCCc1ccccc1OC)c1cccnc1 (centres unmarked) [Compound 71] | 80% | – | – | – | – | – | – | – | 0% | 92% | 100% | 100% | 100% | 100% | 6%
CCCC(C#N)(CCc1ccccc1C(F)(F)F)c1cccnc1 (centres unmarked) [Compound 72] | 80% | – | – | – | – | – | – | – | 0% | 0% | 100% | 83% | 100% | 100% | 38%
CCCCC(C#N)(CCc1ccccc1C(F)(F)F)c1cccnc1 (centres unmarked) [Compound 73] | 0% | – | – | – | – | – | – | – | 0% | 100% | 70% | 100% | 100% | 100% | 34%
CCCCC(C#N)(CCc1ccccc1F)c1cccnc1 (centres unmarked) [Compound 74] | 80% | – | – | – | – | – | – | – | 0% | 92% | 100% | 100% | 100% | 100% | 100%
CCCC(C#N)(CCc1ccccc1F)c1cccnc1 (centres unmarked) [Compound 75] | 0% | – | – | – | – | – | – | – | 0% | 83% | 100% | 92% | 92% | 100% | 100%
CCCCC(C#N)(CCCc1ccc(OC)cc1)c1cccnc1 (centres unmarked) [Compound 76] | 0% | – | – | – | – | – | – | – | 0% | 67% | 100% | 100% | 100% | 100% | 6%
N#CC(CCc1ccc(F)cc1)(CCC(F)(F)F)c1cccnc1 (centres unmarked) [Compound 77] | 100% | – | – | – | – | – | – | – | 35% | 90% | 20% | 90% | 90% | 65% | 40%
